Reference: US20200352931A1, “OXALAMIDES AS MODULATORS OF INDOLEAMINE 2,3-DIOXYGENASE” (PHENEX DISCOVERY VERWALTUNGS-GMBH, priority 2017, published 2020)

Molecular target: T1, Indoleamine 2,3-Dioxygenase (IDO1) in SKOV-3 cells (Homo sapiens, UniProt P14902)
T1 construct: endogenous in cells; host or cells: SKOV-3 (ATCC HTB-77), stimulated with 50 ng/ml interferon gamma
Experiment: SKOV-3 cellular indoleamine 2,3-dioxygenase assay
Conditions: 50 ng/ml Interferon gamma, 100 μM L-Tryptophan, 24 hours, N-Formylkynurenin fluorescence, read-out: cell based activity (IC50)
Protocol: SKOV-3 Cellular Indoleamine 2,3-Dioxygenase Assay
SKOV-3 cells were obtained from the American Type Culture Collection (ATCC® HTB-77™) and maintained in McCoy's medium (Pan Biotech) supplemented with 10% fetal bovine serum and 1% Penicilin/Streptomycin. Cells were kept at 37° C. in a humidified incubator with 5% CO2. For assay preparation, cells were seeded at a density of 2*10^5/m into black clear bottom 96 well plates in 100 μl medium/well supplemented with 50 ng/ml Interferon gamma (eBioscience, Thermo Fisher Scientific). After cells fully adhered to the plate, dilution series of compounds were added in medium containing additional L-Tryptophan to a final L-Tryptophan concentration of 100 μM. The cells were incubated for 24 hours. Detection of produced N-Formylkynurenin was performed by addition of 3-Methylpiperidine to a final concentration of 200 mM. The plates were sealed and heated to 65° C. for 20 minutes in a water bath. After cooling the fluorescence of each well was recorded with a Victor™ X4 (PerkinElmer) plate reader at an emission wavelength of 535 nm and excitation at 405 nm (Tomek et al.; Anal Bioanal Chem (2013) 405:2515-2524., Tomek et al.; Biochim Biophys Acta. 2015 September; 1850(9):1772-80).

T1 sequence (P14902 whole entry): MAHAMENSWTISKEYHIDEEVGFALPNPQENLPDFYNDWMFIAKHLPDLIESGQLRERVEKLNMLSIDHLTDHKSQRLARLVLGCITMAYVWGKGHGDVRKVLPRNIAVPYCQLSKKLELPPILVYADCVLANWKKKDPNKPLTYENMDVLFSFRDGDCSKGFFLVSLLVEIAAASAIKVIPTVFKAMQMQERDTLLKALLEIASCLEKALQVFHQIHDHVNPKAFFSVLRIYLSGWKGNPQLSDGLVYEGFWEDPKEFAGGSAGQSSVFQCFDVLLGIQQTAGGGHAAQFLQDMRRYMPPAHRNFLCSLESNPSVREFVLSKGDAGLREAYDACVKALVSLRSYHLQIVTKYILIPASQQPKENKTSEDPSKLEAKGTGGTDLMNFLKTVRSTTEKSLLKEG

For O=C(NC1Cc2ccc(F)cc21)C(=O)N1CCC2(CC1)COc1cc(C(F)(F)F)ccc12 (centres unmarked) [Example 103, N-(4-Fluorobicyclo[4.2.0]octa-1(6),2,4-trien-7-yl)-2-oxo-2-(6-(trifluoromethyl)-2H-spiro[benzofuran-3,4′-piperidin]-1′-yl)acetamide], the IC50 was > 1000 nM.
In the case of NC(=O)c1ccc(NC(=O)C(=O)N2CCC(c3ccnc4ccc(F)cc34)CC2)cc1 [5/9], the IC50 is reported as > 1000 nM.
For CC1(C)CN(C(=O)C(=O)Nc2ccc(Cl)cc2)CCC1c1ccnc2ccc(F)cc12 (centres unmarked) [1/45], the IC50 was < 100 nM.
In the case of O=C(Nc1ccc(OC(F)F)cc1F)C(=O)N1CCC(c2ccnc3ccc(F)cc23)CC1 [1/40], the IC50 is reported as < 100 nM.
O=C(Nc1ccc(Cl)cc1)C(=O)N1CC[C@H](c2ccnc3ccc(F)cc23)[C@H](O)C1 (single isomer, unassigned) [10/1a] gave an IC50 of 100 to 1000 nM.
For O=C(NCC1CC1)C(=O)N1CCC(c2ccnc3ccc(F)cc23)CC1 [8/4], the IC50 was > 1000 nM.
O=C(Nc1ccc(SC(F)(F)F)cc1)C(=O)N1CCC(c2ccnc3ccc(F)cc23)CC1 [1/38] was tested, and the IC50 was < 100 nM.
With O=C(Nc1ccc(Cl)cc1)C(=O)N1CC[C@@H](c2ccnc3ccc(F)cc23)[C@H](O)C1 (single isomer, unassigned) [Example 10b, trans-N-(4-Chlorophenyl)-2-(4-(6-fluoroquinolin-4-yl)-3-hydroxypiperidin-1-yl)-2-oxoacetamide] the IC50 was < 100 nM.
For O=C(Nc1ccc(Cl)cc1)C(=O)N1CC[C@@H](c2ccnc3ccc(F)cc23)[C@@H](O)C1 (single isomer, unassigned) [10/1b], the IC50 was > 1000 nM.
With CC(NC(=O)C(=O)N1CCC(c2ccnc3ccc(F)cc23)CC1)c1ccccc1 (centres unmarked) [Example 8, 2-(4-(6-Fluoroquinolin-4-yl)piperidin-1-yl)-2-oxo-N-(1-phenylethyl)acetamide] the IC50 was > 1000 nM.
For O=C(NC1CCC(C(F)(F)F)CC1)C(=O)N1CCC(c2ccnc3ccc(F)cc23)CC1 (centres unmarked) [8/6], the IC50 was > 1000 nM.
O=C(Nc1ccc(Cl)cc1)C(=O)N1CCC2(CC1)COc1cc(C(F)F)ccc12 [Example 101, N-(4-Chlorophenyl)-2-(6-(difluoromethyl)-2H-spiro[benzofuran-3,4′-piperidin]-1′-yl)-2-oxoacetamide] was tested, and the IC50 was < 100 nM.
O=C(Nc1ccc(Cl)cn1)C(=O)N1C2CCC1CC(c1ccnc3ccccc13)C2 (centres unmarked) [1/10] gave an IC50 of 100 to 1000 nM.
With O=C(Nc1ccc(Cl)cc1F)C(=O)N1CCC=C(c2ccnc3ccc(F)cc23)CC1 [1/12] the IC50 was < 100 nM.
O=C(N[C@H]1CCc2ccccc21)C(=O)N1CCC(c2ccnc3ccc(F)cc23)CC1 [8/2] was tested, and the IC50 was > 1000 nM.
With O=C(Nc1ccc(C(F)(F)F)c(F)c1)C(=O)N1CCC(c2ccnc3ccc(F)cc23)CC1 [1/21] the IC50 was 100 to 1000 nM.
In the case of O=C(Nc1ccc(Cl)cc1)C(=O)N1CCC(c2ccnc3c(F)cc(F)cc23)CC1 [1/30], the IC50 is reported as < 100 nM.
In the case of Cc1nc(NC(=O)C(=O)N2CCC(c3ccnc4ccc(F)cc34)CC2)ccc1-c1cnn(C)c1 [5/6], the IC50 is reported as > 1000 nM.
In the case of O=C(Nc1ccc(OC(F)(F)F)cc1)C(=O)N1CCC(c2ccnc3ccc(F)cc23)CC1 [1/37], the IC50 is reported as < 100 nM.
In the case of O=C(Nc1ccc(F)c(Cl)c1)C(=O)N1CCC(c2ccccc2)CC1 [1/16], the IC50 is reported as > 1000 nM.
O=C(Nc1ccc(Cl)cc1F)C(=O)N1CCC(c2ccnc3ccnn23)CC1 [1/5] was tested, and the IC50 was 100 to 1000 nM.
O=C(Nc1ccc(Cl)cc1)C(=O)N1CCCC2(CC1)COc1cc(C(F)(F)F)ccc12 (centres unmarked) [Example 102, N-(4-Chlorophenyl)-2-oxo-2-(6′-(trifluoromethyl)-2′H-spiro[azepane-4,3′-benzofuran]-1-yl)acetamide] was tested, and the IC50 was 100 to 1000 nM.
For O=C(Nc1ccc(C(F)(F)F)c(Cl)c1)C(=O)N1CCC(c2ccnc3ccc(F)cc23)CC1 [1/20], the IC50 was > 1000 nM.
For O=C(Nc1ccc(OC(F)F)cc1)C(=O)N1CCC(c2ccnc3ccc(F)cc23)CC1 [1/39], the IC50 was < 100 nM.
With O=C(Nc1ccc(Cl)cn1)C(=O)N1CCC(c2ccnc(C(F)(F)F)c2Cl)CC1 [2/4] the IC50 was 100 to 1000 nM.
For O=C(NC1Cc2ccccc2C1)C(=O)N1CCC(c2ccnc3ccc(F)cc23)CC1 [5/7], the IC50 was 100 to 1000 nM.
Compound O=C(Nc1ccc(Cl)cn1)C(=O)N1CCC2(CC1)OCc1ccccc12 [100/1] has an IC50 of 100 to 1000 nM.
O=C(Nc1ccc(Cl)cc1)C(=O)N1CCC(c2ccnc3ccccc23)CC1 [1/3] was tested, and the IC50 was < 100 nM.
In the case of O=C(Nc1ccc(-c2cncnc2)cn1)C(=O)N1CCC(c2ccnc3ccc(F)cc23)CC1 [5/5], the IC50 is reported as > 1000 nM.
Compound O=C(Nc1ccc(Cl)cn1)C(=O)N1CCC2(CC1)OCc1cc(Cl)ccc12 [100/8] has an IC50 of 100 to 1000 nM.
For COc1cc(C2CCN(C(=O)C(=O)Nc3ccc(Cl)cn3)CC2)c2ccccc2n1 [1/34], the IC50 was > 1000 nM.
N#Cc1ccc(NC(=O)C(=O)N2CCC(c3ccnc4ccc(F)cc34)CC2)c(F)c1 [1/23] was tested, and the IC50 was < 100 nM.
With O=C(Nc1ccc(C(F)F)cc1F)C(=O)N1CCC(c2ccnc3ccc(F)cc23)CC1 [1/25] the IC50 was < 100 nM.
With CO[C@@H]1CN(C(=O)C(=O)Nc2ccc(Cl)cc2)CC[C@H]1c1ccnc2ccc(F)cc12 (single isomer, unassigned) [10/2a] the IC50 was < 100 nM.
For Cc1cc(Cl)ccc1NC(=O)C(=O)N1CCC(c2ccnc3ccc(F)cc23)CC1 [1/32], the IC50 was 100 to 1000 nM.
In the case of O=C(Nc1ccc(Cl)cc1)C(=O)N1CCC2(CC1)OCc1cc(Cl)ccc12 [100/9], the IC50 is reported as < 100 nM.
For CC(C)(O)c1ccc2nccc(C3CCN(C(=O)C(=O)Nc4ccc(Cl)cc4)CC3)c2c1 [1/42], the IC50 was > 1000 nM.
O=C(Nc1ccc(Cl)cc1)C(=O)N1CCC(c2ccnc3ccc(F)cc23)C(F)(F)C1 (centres unmarked) [1/46] was tested, and the IC50 was < 100 nM.
O=C(Nc1ccc(Cl)cc1)C(=O)N1CCC(c2ccnc3cc(F)ccc23)CC1 [1/31] was tested, and the IC50 was < 100 nM.
For O=C(NCc1ccc(Cl)cc1)C(=O)N1CCC(c2ccnc3ccc(F)cc23)CC1 [2/1], the IC50 was > 1000 nM.
O=C(Nc1ccc(Cl)cc1F)C(=O)N1CCC(c2cc(C(F)(F)F)nc3ccccc23)CC1 [1/4] showed an IC50 of 100 to 1000 nM.
O=C(Nc1ccc(Cl)cc1)C(=O)N1CC[C@@H](c2ccnc3ccc(F)cc23)[C@H](O)C1 (single isomer, unassigned) [Example 10a, trans-N-(4-Chlorophenyl)-2-(4-(6-fluoroquinolin-4-yl)-3-hydroxypiperidin-1-yl)-2-oxoacetamide] was tested, and the IC50 was < 100 nM.
With CN1C(=O)c2ccccc2C12CCN(C(=O)C(=O)Nc1ccc(Cl)cn1)CC2 [100/7] the IC50 was > 1000 nM.
For O=C(Nc1ccc(Cl)cn1)C(=O)N1CCCC(c2ccnc3ccccc23)CC1 (centres unmarked) [1/8], the IC50 was < 100 nM.
N#Cc1ccc(C2CCN(C(=O)C(=O)Nc3ccc(Cl)cn3)CC2)c2ccccc12 [2/6] gave an IC50 of 100 to 1000 nM.
In the case of O=C(Nc1ccc(Cl)cc1)C(=O)N1CCC2(CC1)OCc1cc(C(F)(F)F)c(F)cc12 [100/13], the IC50 is reported as < 100 nM.
For O=C(N[C@@H]1CCc2ccccc2C1)C(=O)N1CCC(c2ccnc3ccc(F)cc23)CC1 [5/1], the IC50 was > 1000 nM.
With O=C(Nc1ccc(Cl)cn1)C(=O)N1CCC2(CC1)OCc1cc(C(F)(F)F)ccc12 [100/11] the IC50 was < 100 nM.
In the case of CN1C(=O)C2(CCN(C(=O)C(=O)Nc3ccc(Cl)cn3)CC2)c2ccccc21 [100/4], the IC50 is reported as > 1000 nM.
For Cc1ccc(NC(=O)C(=O)N2CCC(c3ccnc4ccc(F)cc34)CC2)c(F)c1 [1/24], the IC50 was < 100 nM.
